Values joined by “and” are separate entries in the source; they are usually repeats but may differ in a detail not shown here. Equal values may be shown once.
Test system: Human immunodeficiency virus 1
Assay: Antiviral activity against HIV1 in MT4 cells assessed as reduction of virus-induced cytopathicity by XTT assay
Type: functional

## S=C(NCCc1ccccc1)Nc1ncc(Cl)s1
  Log10ED50: 0.4314

## S=C(NCCc1ccccc1Cl)Nc1nccs1
  pED50: 0.3979

## S=C(NCCc1ccccc1)Nc1nncs1
  Log10ED50: 0.7243

## S=C(NCCc1ccccn1)Nc1nccs1
  Log10ED50: 0.1139

## S=C(NCCc1cccc(Oc2ccccc2)c1)Nc1nccs1
  Log10ED50: 0.4471

## N#Cc1csc(NC(=S)NCCc2ccccc2)n1
  pED50: 0.6989

## COc1cccc(F)c1CCNC(=S)Nc1nccs1
  pED50: 0.5229

## COc1ccc(Br)cc1CCNC(=S)Nc1nccs1
  pED50: 1.301

## Fc1cccc(F)c1CCNC(=S)Nc1nccs1
  pED50: 1.6989

## Fc1cccc(Cl)c1CCNC(=S)Nc1nccs1
  pED50: 1.301

## Cn1cccc1CNC(=S)Nc1ccc(Cl)cn1
  pED50: 0.602

## CN(C)c1ccc(F)c(CCNC(=S)Nc2ccc(Cl)cn2)c1F
  pED50: 1.3979

## CCOc1ccc(F)c(CCNC(=S)Nc2ccc(Br)cn2)c1F
  pED50: 2.2218

## COCc1ccc(F)c(CCNC(=S)Nc2ccc(Br)cn2)c1F
  pED50: 2.2218

## CCOc1ccc(F)c(CCNC(=S)Nc2ccc(Cl)cn2)c1Cl
  pED50: 2.0969

## CCOc1ccc(F)c(CCNC(=S)Nc2ccc(I)cn2)c1Cl
  pED50: 1.8239

## COc1ccc(OC)c(CCNC(=S)Nc2ccc(Cl)cn2)c1F
  pED50: 2.6989

## COc1ccc(F)c(CCNC(=S)Nc2ccc(Cl)cn2)c1OC
  pED50: 1.9208

## CCOc1cccc(F)c1CCNC(=S)Nc1ccc(Br)cn1
  pED50: 1.886 and 1.6989

## CN(C)C(=O)c1ccc(F)c(CCNC(=S)Nc2ccc(Br)cn2)c1F
  pED50: 1.0969

## COc1ccc(OC)c(CCNC(=S)Nc2ccc(Cl)cn2)c1
  pED50: 1.3979

## N#Cc1ccc(F)c(CCNC(=S)Nc2ccc(Br)cn2)c1F
  pED50: 1.886

## Fc1ccccc1CCNC(=S)Nc1nccs1
  pED50: 1

## Fc1cccc(CCNC(=S)Nc2nccs2)c1
  pED50: 0.6021

## Fc1ccc(CCNC(=S)Nc2nccs2)cc1
  Log10ED50: 0.5185

## N#Cc1csc(NC(=S)NCCc2c(F)cccc2F)n1
  pED50: 1.5229

## Cn1cccc1CNC(=S)Nc1ccc(C#N)cn1
  pED50: 0.959

## COc1ccccc1CCNC(=S)Nc1nccs1
  pED50: 0.3979

## COc1ccc(CCNC(=S)Nc2nccs2)cc1
  Log10ED50: 0.7404

## Cc1ccccc1CCNC(=S)Nc1nccs1
  pED50: 0.0227

## CCOc1ccc(OCC)c(CCNC(=S)Nc2ccc(Br)cn2)c1
  pED50: 1.7447

## O=[N+]([O-])c1ccccc1CCNC(=S)Nc1nccs1
  Log10ED50: 0.0414

## CCOc1cccc(CCNC(=S)Nc2nccs2)c1
  pED50: 0.8239

## CCCOc1cccc(CCNC(=S)Nc2nccs2)c1
  Log10ED50: 0.3424

## CC(C)Oc1cccc(CCNC(=S)Nc2nccs2)c1
  pED50: 0.3979

## Cc1csc(NC(=S)NCCc2ccccc2)n1
  pED50: 0.3979

## CCc1csc(NC(=S)NCCc2ccccc2)n1
  pED50: 0.1549

## CC(C)c1csc(NC(=S)NCCc2ccccc2)n1
  Log10ED50: 0.1139

## CCCCc1csc(NC(=S)NCCc2ccccc2)n1
  Log10ED50: 0.1139

## S=C(NCCc1ccccc1)Nc1ccccn1
  pED50: 0.6989

## S=C(NCCc1ccccc1)Nc1ccc(Br)cn1
  pED50: 1.301

## N#Cc1ccc(F)c(CC/N=C(\S)Nc2ccc(Cl)cn2)c1F
  pED50: 2.2218

## COc1ccc(F)c(F)c1CC/N=C(\S)Nc1ccc(Br)cn1
  pED50: 2.1589

## S=C(NCCc1ccccc1)Nc1nccs1
  Log10ED50: 0.1139

## S=C(NCCc1cccnc1)Nc1nccs1
  Log10ED50: 0.8062

## S=C(NCCc1ccco1)Nc1nccs1
  Log10ED50: 0.716

## CCOC(=O)c1csc(NC(=S)NCCc2ccccc2)n1
  pED50: 0.301

## Cc1ccc(NC(=S)NCCc2ccccc2)nc1
  pED50: 0.8239

## Cc1ccc(NC(=S)NCCc2c(F)cccc2F)nc1
  pED50: 2

## CCOc1c(Cl)cc(F)c(CCNC(=S)Nc2ccc(Br)cn2)c1Cl
  pED50: 1.886

## COc1ccc(F)c(CCNC(=S)Nc2ccc(Br)cn2)c1F
  pED50: 1.8239

## CCCc1csc(NC(=S)NCCc2ccccc2)n1
  Log10ED50: 0.2041

## CCOc1ccc(OC)c(CCNC(=S)Nc2ccc(Cl)cn2)c1F
  pED50: 2.301

## CCOc1cccc(F)c1CCNC(=S)Nc1ccc(C)cn1
  pED50: 0.6989

## Cc1ccc(NC(=S)NCCc2ccccn2)nc1
  pED50: 0.5228

## CCc1csc(NC(=S)NCCc2c(F)cccc2F)n1
  pED50: 1.0969

## Oc1ccccc1CCNC(=S)Nc1nccs1
  Log10ED50: 0.602

## COc1cccc(OC)c1CCNC(=S)Nc1nccs1
  pED50: 1.0457

## CC(=O)NCc1ccc(F)c(CCNC(=S)Nc2ccc(Br)cn2)c1F
  pED50: 0.0457

## COc1cccc(CCNC(=S)Nc2nccs2)c1
  pED50: 0.2218

## COc1ccc(OC)c(CCNC(=S)Nc2nccs2)c1
  pED50: 0.3979

## CCOc1ccc(F)c(F)c1CCNC(=S)Nc1ccc(Br)cn1
  pED50: 2.1549

## FC(F)(F)c1csc(NC(=S)NCCc2ccccc2)n1
  pED50: 0.301

## CCOc1ccc(F)c(CCNC(=S)Nc2ccc(C#N)cn2)c1Cl
  pED50: 2.5229

## CCOc1cccc(F)c1CCNC(=S)Nc1nccs1
  pED50: 0.6989

## CN(C)c1ccc(F)c(CCNC(=S)Nc2ccc(Br)cn2)c1F
  pED50: 1.7447 and 1.3979

## Fc1cccc(F)c1CC/N=C(\S)Nc1ccc(Br)cn1
  pED50: 2

## CCOc1ccc(F)c(CCNC(=S)Nc2ccc(Br)cn2)c1Cl [THIOUREA, N-(5-BROMO-2-PYRIDINYL)-N'-(2-(2-CHLORO-3-ETHOXY-6-FLUOROPHENYL)ETHYL)-]
  pED50: 2.1549

## S=C(NCCc1ccccn1)Nc1ccc(Br)cn1 [TROVIRDINE]
  pED50: 1.6989

— ChEMBL document CHEMBL1140615, “Predicting anti-HIV activity of PETT derivatives: CoMFA approach” (2007)
